# Data taken from patent US10472347B2, “Aminopyrazine compounds with A2A antagonist properties” (Merck Sharp & Dohme Corp., priority 2014, dated 2019).
# Target: T1, human A2a receptor (Homo sapiens, UniProt P29274)
# T1 construct: purchased Perkin-Elmer RBHA2AM400UA; host or cells: HEK293 cells (membranes)
# Assay: A2a competition binding assay, Scintillation Proximity technology
# Conditions: membranes from HEK293 cells expressing human A2a receptor; Ki by Cheng-Prusoff equation
# How it was run: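 SPA competition: 0.5 nM tritiated pyrazolotriazolopyrimidine ligand displaced by compound at 3000 to 0.15 nM, 1 h room temperature, human A2a HEK293 membranes pretreated with adenosine deaminase, PBS/10 mM MgCl2 buffer. CGS15943 1 μM defined non-specific binding; EC50 converted to Ki via Cheng-Prusoff.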
# T1 sequence (P29274 whole entry): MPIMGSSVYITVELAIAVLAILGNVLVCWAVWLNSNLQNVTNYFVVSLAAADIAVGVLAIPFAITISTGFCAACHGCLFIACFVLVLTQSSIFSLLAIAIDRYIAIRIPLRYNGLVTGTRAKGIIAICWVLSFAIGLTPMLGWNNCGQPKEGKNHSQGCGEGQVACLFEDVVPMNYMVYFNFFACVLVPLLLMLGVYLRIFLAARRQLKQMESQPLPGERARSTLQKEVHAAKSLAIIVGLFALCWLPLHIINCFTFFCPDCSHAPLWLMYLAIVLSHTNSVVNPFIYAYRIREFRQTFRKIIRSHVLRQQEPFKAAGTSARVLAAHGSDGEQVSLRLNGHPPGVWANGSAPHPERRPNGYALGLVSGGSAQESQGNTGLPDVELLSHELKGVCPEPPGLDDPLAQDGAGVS
row,SMILES,Ki [nM]
1,"Cc1nc(C(=O)NCc2nn(C)c3c2CCC3)c(N)nc1-c1ncco1 [Ex-174, 3-amino-6-methyl-N-[(1-methyl-1,4,5,6-tetrahydrocyclopenta[c]pyrazol-3-yl)methyl]-5-(1,3-oxazol-2-yl)pyrazine-2-carboxamide]",2.96
2,"Cc1cncnc1CNC(=O)c1nc(C)c(-c2ncco2)nc1N [Ex-175, 3-amino-6-methyl-N-[(5-methylpyrimidin-4-yl)methyl]-5-(1,3-oxazol-2-yl)pyrazine-2-carboxamide]",6.31
3,"Cc1nc(C(=O)NCc2nccc3ccccc23)c(N)nc1-c1ncco1 [Ex-178, 3-amino-N-(isoquinolin-1-ylmethyl)-6-methyl-5-(1,3-oxazol-2-yl)pyrazine-2-carboxamide]",0.217
4,"CCc1cccnc1CNC(=O)c1nc(C)c(-c2ncco2)nc1N [Ex-179, 3-amino-N-[(3-ethylpyridin-2-yl)methyl]-6-methyl-5-(1,3-oxazol-2-yl)pyrazine-2-carboxamide]",0.1
5,"Cc1nc(C(=O)NCc2nccc(F)c2C2CC2)c(N)nc1-c1ncco1 [Ex-180, 3-amino-N-[(3-cyclopropyl-4-fluoropyridin-2-yl)methyl]-6-methyl-5-(1,3-oxazol-2-yl)pyrazine-2-carboxamide]",0.168
6,"Cc1nc(C(=O)NCc2cccc3c2ncn3CC(F)(F)F)c(N)nc1-c1ncco1 [Ex-181, 3-amino-6-methyl-5-(1,3-oxazol-2-yl)-N-{[1-(2,2,2-trifluoroethyl)-1H-benzimidazol-4-yl]methyl}pyrazine-2-carboxamide]",1.3
7,"Cc1nc(C(=O)NCc2ncc(C(F)(F)F)cc2C2CC2)c(N)nc1-c1ncco1 [Ex-182, 3-amino-N-{[3-cyclopropyl-5-(trifluoromethyl)pyridin-2-yl]methyl}-6-methyl-5-(1,3-oxazol-2-yl)pyrazine-2-carboxamide]",2.7
8,"Cc1cc(C(F)(F)F)cnc1CNC(=O)c1nc(C)c(-c2ncco2)nc1N [Ex-183, 3-amino-6-methyl-N-{[3-methyl-5-(trifluoromethyl)pyridin-2-yl]methyl}-5-(1,3-oxazol-2-yl)pyrazine-2-carboxamide]",6.72
9,"Cc1nc(C(=O)NCc2nccnc2C2CC2)c(N)nc1-c1ncco1 [Ex-184, 3-amino-N-[(3-cyclopropyl-pyrazin-2-yl)methyl]-6-methyl-5-(1,3-oxazol-2-yl)pyrazine-2-carboxamide]",0.208
10,"Cc1cnc(CNC(=O)c2nc(C)c(-c3ncco3)nc2N)nc1 [Ex-185, 3-amino-6-methyl-N-[(5-methylpyrimidin-2-yl)methyl]-5-(1,3-oxazol-2-yl)pyrazine-2-carboxamide]",4.25
11,"COc1cccc(F)c1CNC(=O)c1nc(C)c(-c2ncco2)nc1N [Ex-186, 3-amino-N-(2-fluoro-6-methoxybenzyl)-6-methyl-5-(1,3-oxazol-2-yl)pyrazine-2-carboxamide]",0.181
12,"CCc1nccnc1CNC(=O)c1nc(C)c(-c2ncco2)nc1N [Ex-187, 3-amino-N-[(3-ethylpyrazin-2-yl)methyl]-6-methyl-5-(1,3-oxazol-2-yl)pyrazine-2-carboxamide]",0.449
13,"Cc1nc(C(=O)NCc2ncnn2C(C)C)c(N)nc1-c1ncco1 [Ex-188, 3-amino-6-methyl-N-{[1-(1-methylethyl)-1H-1,2,4-triazol-5-yl]methyl}-5-(1,3-oxazol-2-yl)pyrazine-2-carboxamide]",0.29
14,Cc1nc(C(=O)NCc2cccc3c2ncn3C(C)C)c(N)nc1-c1ncco1 [Ex-189],1.03
15,"Cc1nc2c(o1)CN(CCNC(=O)c1nc(C)c(-c3ncco3)nc1N)CC2 [Ex-190, 3-amino-6-methyl-N-[2-(2-methyl-6,7-dihydro[1,3]oxazolo[5,4-c]pyridin-5-(4H)-yl)ethyl]-5-(1,3-oxazol-2-yl)pyrazine-2-carboxamide]",12.3
16,"CCn1cnc2c(CNC(=O)c3nc(C)c(-c4ncco4)nc3N)cccc21 [Ex-193, 3-amino-N-[(1-ethyl-1H-benimidazol-4-yl)methyl]-6-methyl-5-(1,3-oxazol-2-yl)pyrazine-2-carboxamide]",0.435
17,"Cc1nc(C(=O)NCc2nn(C)cc2C(F)F)c(N)nc1-c1ncco1 [Ex-194, 3-amino-N-{[4-(difluoromethyl)-1-methyl-1H-pyrazol-3-yl]methyl}-6-methyl-5-(1,3-oxazol-2-yl)pyrazine-2-carboxamide]",1.65
18,"Cc1nccnc1CNC(=O)c1nc(C)c(-c2ncco2)nc1N [Ex-195, 3-amino-6-methyl-N-[(3-methylpyrazin-2-yl)methyl]-5-(1,3-oxazol-2-yl)pyrazine-2-carboxamide]",1.71
19,"CCc1cc(C(F)(F)F)cnc1CNC(=O)c1nc(C)c(-c2ncco2)nc1N [Ex-196, 3-amino-N-{[3-ethyl-5-(trifluoromethyl)pyridin-2-yl]methyl}-6-methyl-5-(1,3-oxazol-2-yl)pyrazine-2-carboxamide]",2.53
20,"Cc1nc(C(=O)NCc2ncc(C3CC3)cn2)c(N)nc1-c1ncco1 [Ex-197, 3-amino-N-[(5-cyclopropylpyrimidin-2-yl)methyl]-6-methyl-5-(1,3-oxazol-2-yl)pyrazine-2-carboxamide]",6.37

row,SMILES,Ki [nM]
1,"Cc1nc(C(=O)NCc2nccc3ncn(C)c23)c(N)nc1-c1ncco1 [Ex-198, 3-amino-6-methyl-N-[(3-methyl-3H-imidazo[4,5-c]pyridin-4-yl)methyl]-5-(1,3-oxazol-2-yl)pyrazine-2-carboxamide]",8.77
2,"CCc1cnc(CNC(=O)c2nc(C)c(-c3ncco3)nc2N)nc1 [Ex-199, 3-amino-N-[(5-ethylpyrimidin-2-yl)methyl]-6-methyl-5-(1,3-oxazol-2-yl)pyrazine-2-carboxamide]",9.42
3,"Cc1nc(C(=O)N[C@H]2CCc3cc(F)ccc32)c(N)nc1-c1ncco1 [Ex-200, 3-amino-N-[(1S)-5-fluoro-2,3-dihydro-1H-inden-1-yl]-6-methyl-5-(1,3-oxazol-2-yl)pyrazine-2-carboxamide]",14.7
4,"Cc1nc(C(=O)N[C@H]2CCc3ccc(F)cc32)c(N)nc1-c1ncco1 [Ex-201, 3-amino-N-[(1S)-6-fluoro-2,3-dihydro-1H-inden-1-yl]-6-methyl-5-(1,3-oxazol-2-yl)pyrazine-2-carboxamide]",0.633
5,"Cc1nc(C(=O)N[C@@H]2CCC[C@H]2O)c(N)nc1-c1ncco1 [Ex-202, 3-amino-N-[(1R,2R)-2-hydroxycyclopentyl]-6-methyl-5-(1,3-oxazol-2-yl)pyrazine-2-carboxamide]",2.22
6,"Cc1nc(C(=O)N[C@H]2CCC[C@H]2F)c(N)nc1-c1ncco1 [Ex-203, 3-amino-N-[(1S,2R)-2-fluorocyclopentyl]-6-methyl-5-(1,3-oxazol-2-yl)pyrazine-2-carboxamide]",3.48
7,"Cc1nc(C(=O)N[C@@H]2CCC[C@H]2N(C)C)c(N)nc1-c1ncco1 [Ex-204, 3-amino-N-[(1R,2R)-2-(dimethylamino)cyclopentyl]-6-methyl-5-(1,3-oxazol-2-yl)pyrazine-2-carboxamide]",1500
8,"Cc1nc(C(=O)N(C)[C@@H]2CCC[C@H]2O)c(N)nc1-c1ncco1 [Ex-205, 3-amino-N-[(1R,2R)-2-hydroxycyclopentyl]-N,6-dimethyl-5-(1,3-oxazol-2-yl)pyrazine-2-carboxamide]",385
9,"Cc1nc(C(=O)N[C@@H]2CCC[C@H]2F)c(N)nc1-c1ncco1 [Ex-206, 3-amino-N-[(1R,2R)-2-fluorocyclopentyl]-6-methyl-5-(1,3-oxazol-2-yl)pyrazine-2-carboxamide]",3.72
10,"Cc1nc(C(=O)N[C@H]2[C@H](C)CC[C@H]2O)c(N)nc1-c1ncco1 [Ex-207, 3-amino-N-[(1S,2R,5R)-2-hydroxy-5-methylcyclopentyl]-6-methyl-5-(1,3-oxazol-2-yl)pyrazine-2-carboxamide]",2.92
11,"C#CC[C@H]1CCC[C@H]1NC(=O)c1nc(C)c(-c2ncco2)nc1N [Ex-208, 3-amino-6-methyl-5-(1,3-oxazol-2-yl)-N-[(1R,2R)-2-prop-2-yl-1-ylcyclopentyl]pyrazine-2-carboxamide]",0.982
12,"C#C[C@H]1CCC[C@@H]1NC(=O)c1nc(C)c(-c2ncco2)nc1N [Ex-209, 3-amino-N-[(1S,2R)-2-ethynylcyclopentyl]-6-methyl-5-(1,3-oxazol-2-yl)pyrazine-2-carboxamide]",2.97
13,"Cc1nc(C(=O)NC2CCCC2F)c(N)nc1-c1ncco1 (stereo not drawn) [Ex-210, 3-amino-N-(2-fluorocyclopentyl)-6-methyl-5-(1,3-oxazol-2-yl)pyrazine-2-carboxamide]",1.42
14,"Cc1nc(C(=O)N[C@H]2CCC[C@@H]2O)c(N)nc1-c1ncco1 [Ex-211, 3-amino-N-[(1S,2S)-2-hydroxycyclopentyl]-6-methyl-5-(1,3-oxazol-2-yl)pyrazine-2-carboxamide]",7.37
15,"Cc1nc(C(=O)N[C@@H]2CCC[C@@H]2O)c(N)nc1-c1ncco1 [Ex-212, 3-amino-N-[(1R,2S)-2-hydroxycyclopentyl]-6-methyl-5-(1,3-oxazol-2-yl)pyrazine-2-carboxamide]",98.9
16,"Cc1nc(C(=O)N[C@@H]2C[C@H]3CC[C@@H]2C3)c(N)nc1-c1ncco1 [Ex-213, 3-amino-N-[(1R,2R,4S)-bicyclo[2.2.1]hept-2-yl]-6-methyl-5-(1,3-oxazol-2-yl)pyrazine-2-carboxamide]",0.42
17,Cc1nc(C(=O)NCc2nccc3c2ccn3C)c(N)nc1-c1ncco1 [Ex-214],0.689
18,"Cc1nc(C(=O)NCc2nccnc2C(F)(F)F)c(N)nc1-c1ncco1 [Ex-215, 3-amino-6-methyl-5-(1,3-oxazol-2-yl)-N-{[3-(trifluoromethyl)pyrazin-2-yl]methyl}pyrazine-2-carboxamide]",1.44
19,"CCn1cc2cccc(CNC(=O)c3nc(C)c(-c4ncco4)nc3N)c2n1 [Ex-216, 3-amino-N-[(2-ethyl-2H-indazol-7-yl)methyl]-6-methyl-5-(1,3-oxazol-2-yl)pyrazine-2-carboxamide]",0.123
